Data as given in US10227361B2, “Fused imidazobenzothiazole compounds” (TORRENT PHARMACEUTICALS LIMITED, priority 2014, dated 2019).

These compounds were tested against T1, purified recombinant human p38 alpha MAPK (Homo sapiens, UniProt Q16539) (assay: Inhibition of p38 alpha MAPK activity: TR-FRET kinase assay). Settings: Concentration 100 nM; read-out: P38α Inhibition.
T1 construct: purchased Millipore, USA
Format: biochemical
Method: Inhibition of p38 Alpha MAPK Activity: Time-Resolved Fluorescence Resonance Energy Transfer Kinase Standard Assay (TR-FRET Assay)
Compounds of present invention at various concentrations were premixed with DMSO. The experiment was initiated by mixing 0.5% 1.0% DMSO as vehicle/compounds with purified recombinant human p38 alpha MAPK (Millipore, USA) in the wells and 15 min incubation at RT. Thereafter, 30 nM of Biotinylated GST-ATF2 (Activation Transcription Factor2) and 100 μM of ATP were added in to the wells containing reaction mixture, followed by reincubation for 60 minutes at RT. Reaction was terminated by addition of 10 mM of EDTA and detection reagent containing anti-phosphothreonine ATF2 antibody (Perkin Elmer, USA) labelled with europium chelate and APC (Allophycocyanin) labeled streptavidin, into the reaction mixture which was further incubated for 60 minutes at room temperature. The degree of phosphorylation of the substrate (GST-ATF2) was measured using Envision multimode reader (Perkin Elmer). Percentage inhibition of p38 kinase activity was calculated by determining ratio of specific europium 665 nm energy transfer signal to reference 615 nm signal.

T1 sequence (Q16539 whole entry): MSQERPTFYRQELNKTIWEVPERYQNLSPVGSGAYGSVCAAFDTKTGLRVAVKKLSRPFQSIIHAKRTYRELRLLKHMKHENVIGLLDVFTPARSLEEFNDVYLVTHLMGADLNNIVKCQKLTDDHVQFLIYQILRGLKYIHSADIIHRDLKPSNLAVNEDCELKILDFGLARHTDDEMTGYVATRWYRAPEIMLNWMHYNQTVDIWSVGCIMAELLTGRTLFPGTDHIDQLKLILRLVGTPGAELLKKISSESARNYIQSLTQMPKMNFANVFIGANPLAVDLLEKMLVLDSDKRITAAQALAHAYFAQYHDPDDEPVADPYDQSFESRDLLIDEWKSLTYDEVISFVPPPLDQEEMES

inhibition at 0.1 µM [%] | Compound
60 to 80 | CCOC(=O)c1cnc2sc3cc(Oc4ccccc4CNC(=O)Nc4cc(C(C)(C)C)nn4-c4ccc(O)c(Cl)c4)ccc3n12 [Compound 25, ethyl 7-{2-[({[3-tert-butyl-1-(3-chloro-4-hydroxyphenyl)-1H-pyrazol-5-yl]carbamoyl}amino)methyl]phenoxy}imidazo[2,1-b][1,3]benzothiazole-3-carboxylate]

Same assay, conditions: Concentration 1 μM

P38α Inhibition | Compound
++ (++ = Inhibition ≥20% ≤ 40%) | 7-{[4-({[3-tert-butyl-1-(4-hydroxyphenyl)-1H-pyrazol-5-yl]carbamoyl}amino)phenyl]sulfanyl}-N-(2-hydroxyethyl)imidazo[2,1-b][1,3]benzothiazole-3-carboxamide [Compound 11]

Same assay, conditions: Concentration 1 μM; read-out: P38α Inhibition

Compound | inhibition at 1 µM [%]
COc1ccc(-n2nc(C(C)(C)C)cc2NC(=O)Nc2ccc(Oc3ccc4c(c3)sc3ncc(CO)n34)cc2)cc1 [Compound 15, 1-[3-tert-butyl-1-(4-methoxyphenyl)-1H-pyrazol-5-yl]-3-(4-{[3-(hydroxymethyl)imidazo[2,1-b][1,3]benzothiazol-7-yl]oxy}phenyl)urea] | 60 to 80
CCOC(=O)c1cnc2sc3cc(Oc4ccccc4CNC(=O)Nc4cc(C(C)(C)C)nn4-c4ccc(O)cc4)ccc3n12 [Compound 17, Ethyl 7-{2-[({[3-tert-butyl-1-(4-hydroxyphenyl)-1H-pyrazol-5-yl]carbamoyl}amino)methyl]phenoxy}imidazo[2,1-b][1,3]benzothiazole-3-carboxylate] | 80 to 100
CC(C)(C)c1cc(NC(=O)NCc2ccccc2Oc2ccc3c(c2)sc2ncc(CO)n23)n(-c2ccc(O)cc2)n1 [Compound 16, 1-[3-tert-butyl-1-(4-hydroxyphenyl)-1H-pyrazol-5-yl]-3-(2-{[3-(hydroxymethyl)imidazo[2,1-b][1,3]benzothiazol-7-yl]oxy}benzyl)urea] | 80 to 100
COc1ccc(-n2nc(C(C)(C)C)cc2NC(=O)Nc2ccc(Sc3ccc4c(c3)sc3ncc(C(=O)O)n34)cc2)cc1 [Compound 10, 7-{[4-({[3-tert-butyl-1-(4-methoxyphenyl)-1H-pyrazol-5-yl]carbamoyl}amino)phenyl]sulfanyl}imidazo[2,1-b][1,3]benzothiazole-3-carboxylic acid] | 80 to 100
CC(C)(C)c1cc(NC(=O)Nc2ccc(Oc3ccc4c(c3)sc3ncc(C(=O)O)n34)cc2)n(-c2ccc(O)c(Cl)c2)n1 [Compound 8, 7-[4-({[3-tert-butyl-1-(3-chloro-4-hydroxyphenyl)-1H-pyrazol-5-yl]carbamoyl}amino)phenoxy]imidazo[2,1-b][1,3]benzothiazole-3-carboxylic acid] | 80 to 100
Cc1ccc(-n2nc(C(C)(C)C)cc2NC(=O)Nc2ccc(Oc3ccc4c(c3)sc3nc(C(=O)NC(CO)c5ccccc5)cn34)cc2)cc1 (stereo not shown) [Compound 3, 7-[4-({[3-tert-butyl-1-(4-methylphenyl)-1H-pyrazol-5-yl]carbamoyl}amino)phenoxy]-N-(2-hydroxy-1-phenylethyl)imidazo[2,1-b][1,3]benzothiazole-2-carboxamide] | 40 to 60
CCOC(=O)c1cnc2sc3cc(Oc4ccc(NC(=O)Nc5cc(C(C)(C)C)nn5-c5ccc(O)c(Cl)c5)cc4)ccc3n12 [Compound 26, ethyl 7-[4-({[3-tert-butyl-1-(3-chloro-4-hydroxyphenyl)-1H-pyrazol-5-yl]carbamoyl}amino)phenoxy]imidazo[2,1-b][1,3]benzothiazole-3-carboxylate] | ≤ 20
CC(C)(C)c1cc(NC(=O)NCc2ccccc2Sc2ccc3c(c2)sc2ncc(C(=O)O)n23)n(-c2ccc(O)c(Cl)c2)n1 [Compound 24, 7-({2-[({[3-tert-butyl-1-(3-chloro-4-hydroxyphenyl)-1H-pyrazol-5-yl]carbamoyl}amino)methyl]phenyl}sulfanyl)imidazo[2,1-b][1,3]benzothiazole-3-carboxylic acid] | 40 to 60
COc1ccc(-n2nc(C(C)(C)C)cc2NC(=O)Nc2ccc(Oc3ccc4c(c3)sc3ncc(C(=O)NCCO)n34)cc2)cc1Cl [Compound 7, 7-[4-({[3-tert-butyl-1-(3-chloro-4-methoxyphenyl)-1H-pyrazol-5-yl]carbamoyl}amino)phenoxy]-N-(2-hydroxyethyl)imidazo[2,1-b][1,3]benzothiazole-3-carboxamide] | 60 to 80
CC(C)(C)c1cc(NC(=O)NCc2ccccc2Oc2ccc3c(c2)sc2ncc(C(=O)NCCO)n23)n(-c2ccc(O)c(Cl)c2)n1 [Compound 20, 7-{2-[({[3-tert-butyl-1-(3-chloro-4-hydroxyphenyl)-1H-pyrazol-5-yl]carbamoyl}amino)methyl]phenoxy}-N-(2-hydroxyethyl)imidazo[2,1-b][1,3]benzothiazole-3-carboxamide] | 80 to 100
CC(C)(C)c1cc(NC(=O)NCc2ccccc2Oc2ccc3c(c2)sc2ncc(CSCCO)n23)n(-c2ccc(O)c(Cl)c2)n1 [Compound 23, 1-[3-tert-butyl-1-(3-chloro-4-hydroxyphenyl)-1H-pyrazol-5-yl]-3-{2-[(3-{[(2-hydroxyethyl)sulfanyl]methyl}imidazo[2,1-b][1,3]benzothiazol-7-yl)oxy]benzyl}urea] | 80 to 100
CC(C)(C)c1cc(NC(=O)NCc2ccccc2Oc2ccc3c(c2)sc2ncc(CN4CCSCC4)n23)n(-c2ccc(O)c(Cl)c2)n1 [Compound 29, 1-[3-tert-butyl-1-(3-chloro-4-hydroxyphenyl)-1H-pyrazol-5-yl]-3-(2-{[3-(thiomorpholin-4-ylmethyl)imidazo[2,1-b][1,3]benzothiazol-7-yl]oxy}benzyl)urea] | 80 to 100
CC(C)(C)c1cc(NC(=O)NCc2ccccc2Oc2ccc3c(c2)sc2ncc(C(=O)O)n23)n(-c2ccc(O)c(Cl)c2)n1 [Compound 19, 7-{2-[({[3-tert-butyl-1-(3-chloro-4-hydroxyphenyl)-1H-pyrazol-5-yl]carbamoyl}amino)methyl]phenoxy}imidazo[2,1-b][1,3]benzothiazole-3-carboxylic acid] | 80 to 100
Cc1ccc(-n2nc(C(C)(C)C)cc2NC(=O)Nc2ccc(Oc3ccc4c(c3)sc3nc(C(=O)NCCN5CCOCC5)cn34)cc2)cc1 [Compound 2, 7-[4-({[3-tert-butyl-1-(4-methylphenyl)-1H-pyrazol-5-yl]carbamoyl}amino)phenoxy]-N-[2-(morpholin-4-yl)ethyl]imidazo[2,1-b][1,3]benzothiazole-2-carboxamide] | 60 to 80

The remaining lines, values ahead:

inhibition at 1 µM [%] | Compound
80 to 100 | CCOC(=O)CSCc1cn2c(n1)sc1cc(Oc3ccccc3CNC(=O)Nc3cc(C(C)(C)C)nn3-c3ccc(O)c(Cl)c3)ccc12 [Compound 30, ethyl {[(7-{2-[({[3-tert-butyl-1-(3-chloro-4-hydroxyphenyl)-1H-pyrazol-5-yl]carbamoyl}amino)methyl]phenoxy}imidazo[2,1-b][1,3]benzothiazol-2-yl)methyl]sulfanyl}acetate]
60 to 80 | COCc1c(C)nc2sc3cc(Oc4ccccc4CNC(=O)Nc4ccc(OC)c(Cl)c4)ccc3n12 [Compound 48, 1-(3-chloro-4-methoxyphenyl)-3-(2-{[3-(methoxymethyl)-2-methylimidazo[2,1-b][1,3]benzothiazol-7-yl]oxy}benzyl)urea]
60 to 80 | CCOC(=O)c1cnc2sc3cc(Oc4ccccc4CNC(=O)Nc4cc(C(C)(C)C)nn4-c4ccccc4)ccc3n12 [Compound 67, ethyl 7-[2-({[(3-tert-butyl-1-phenyl-1H-pyrazol-5-yl)carbamoyl]amino}methyl)phenoxy]imidazo[2,1-b][1,3]benzothiazole-3-carboxylate]
≤ 20 | O=C(Nc1ccc(Oc2ccc3c(c2)sc2ncc(C(=O)O)n23)cc1)NC(CO)c1ccccc1 (stereo not shown) [Compound 41, 7-(4-{[(2-hydroxy-1-phenylethyl)carbamoyl]amino}phenoxy)imidazo[2,1-b][1,3]benzothiazole-3-carboxylic acid]
60 to 80 | COc1c(NC(=O)NCc2ccccc2Oc2ccc3c(c2)sc2ncc(CN4CCOCC4)n23)cc(C(C)(C)C)cc1NS(C)(=O)=O [Compound 74, N-(5-tert-butyl-2-methoxy-3-{[(2-{[3-(morpholin-4-ylmethyl)imidazo[2,1-b][1,3]benzothiazol-7-yl]oxy}benzyl)carbamoyl]amino}phenyl) methanesulfonamide]
80 to 100 | COCc1c(C)nc2sc3cc(Oc4ccccc4CNC(=O)Nc4cc(C(C)(C)C)no4)ccc3n12 [Compound 50, 1-(3-tert-butyl-1,2-oxazol-5-yl)-3-(2-{[3-(methoxymethyl)-2-methylimidazo[2,1-b][1,3]benzothiazol-7-yl]oxy}benzyl)urea]
≤ 20 | CCOC(=O)c1cnc2sc3cc(Oc4ccccc4CNC(=O)Nc4cc(OC)cc(OC)c4)ccc3n12 [Compound 45, ethyl 7-[2-({[(3,5-dimethoxyphenyl)carbamoyl]amino}methyl)phenoxy]imidazo[2,1-b][1,3]benzothiazole-3-carboxylate]
60 to 80 | CC(C)(C)c1cc(NC(=O)NCc2ccccc2Oc2ccc3c(c2)sc2ncc(CN4CCC(O)CC4)n23)n(-c2ccc(O)c(Cl)c2)n1 [Compound 65, 1-[3-tert-butyl-1-(3-chloro-4-hydroxyphenyl)-1H-pyrazol-5-yl]-3-[2-({3-[(4-hydroxypiperidin-1-yl)methyl]imidazo[2,1-b][1,3]benzothiazol-7-yl}oxy)benzyl]urea]
≤ 20 | CCOC(=O)c1cnc2sc3cc(Oc4ccc(NC(=O)Nc5c(-c6ccccc6)noc5C)cc4)ccc3n12 [Compound 43, ethyl 7-(4-{[(5-methyl-3-phenyl-1,2-oxazol-4-yl)carbamoyl]amino}phenoxy)imidazo[2,1-b][1,3]benzothiazole-3-carboxylate]
